Data published in patent US9771359B1, “Substituted oxazole- and thiazole-based carboxamide and urea derivatives as vanilloid receptor ligands II” (MEDIFRON DBT INC., priority 2014, dated 2017).
Counter-ions that a name gives are not always drawn.

What follows are molecules tested against vanilloid receptor 1 (VR1/TRPV1) (Homo sapiens (Human), UniProt Q8NER1) (assay: FLIPR assay, Ca2+ influx in CHO K1 cells transfected with the human VR1 gene). Settings: CHO-K1; @5 μM test compound; capsaicin 100 nM; read-out: inhibition (as a percentage), Cap.
Sequence of vanilloid receptor 1 (VR1/TRPV1) (Q8NER1 whole entry): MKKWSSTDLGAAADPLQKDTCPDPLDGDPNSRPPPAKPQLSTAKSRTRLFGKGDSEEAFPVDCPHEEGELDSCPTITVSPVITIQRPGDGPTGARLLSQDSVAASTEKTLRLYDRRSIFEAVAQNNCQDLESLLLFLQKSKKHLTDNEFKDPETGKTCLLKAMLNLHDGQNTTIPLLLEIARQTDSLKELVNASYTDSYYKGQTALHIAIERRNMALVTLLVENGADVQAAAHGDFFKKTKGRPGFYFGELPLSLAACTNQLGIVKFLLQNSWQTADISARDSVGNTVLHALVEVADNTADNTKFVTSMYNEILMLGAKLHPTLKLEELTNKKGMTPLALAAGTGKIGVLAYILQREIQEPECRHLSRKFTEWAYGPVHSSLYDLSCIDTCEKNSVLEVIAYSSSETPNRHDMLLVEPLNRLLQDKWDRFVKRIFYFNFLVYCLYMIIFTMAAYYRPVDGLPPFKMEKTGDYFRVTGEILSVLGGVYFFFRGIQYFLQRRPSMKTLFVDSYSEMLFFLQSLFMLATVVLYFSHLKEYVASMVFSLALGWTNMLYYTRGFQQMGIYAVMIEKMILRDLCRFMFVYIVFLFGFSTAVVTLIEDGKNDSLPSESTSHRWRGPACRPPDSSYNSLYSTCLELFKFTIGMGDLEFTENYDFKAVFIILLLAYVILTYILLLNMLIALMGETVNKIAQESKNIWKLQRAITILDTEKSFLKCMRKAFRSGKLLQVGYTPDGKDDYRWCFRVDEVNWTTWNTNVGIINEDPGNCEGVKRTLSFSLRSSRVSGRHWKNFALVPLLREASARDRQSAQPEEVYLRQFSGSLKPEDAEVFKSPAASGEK
Assay type: cell-based
Procedure: Furthermore, preference may be given to compounds according to the first aspect of the invention that cause a 50% displacement of capsaicin, which is present at a concentration of 100 nM, in a FLIPR assay with CHO K1 cells which were transfected with the human VR1 gene at a concentration of less than 2 000 nM, preferably less than 1 000 nM, particularly preferably less than 300 nM, most particularly preferably less than 100 nM, even more preferably less than 75 nM, additionally preferably less than 50 nM, most preferably less than 10 nM. In the process, the Ca^2+ influx is quantified in the FLIPR assay with the aid of a Ca^2+-sensitive dye (type Fluo-4, Molecular Probes Europe BV, Leiden, the Netherlands) in a fluorescent imaging plate reader (FLIPR, Molecular Devices, Sunnyvale, USA), as described hereinafter.
The FLIPR protocol consists of 2 substance additions during a kinetic measurement. First the compounds to be tested (5 μM) are pipetted onto the cells and the Ca^2+ influx is determined in comparison to the control (capsaicin 10 μM), providing the result as % activation and representing the compound-alone effect (calculation at peak signal related to baseline). […] After 5 min incubation, the Ca^2+ influx is related to an injection of 100 nM of capsaicin and thereby the antagonistic effect of the test compounds detected.
Desensitising agonists and antagonists lead to suppression of the Ca^2+ influx. The % inhibition is calculated compared to the maximum achievable inhibition with 10 μM of capsaicin. Triple analyses (n=3) are carried out and repeated in at least 3 independent experiments.
Starting from the percentage displacement caused by different concentrations of the compounds to be tested of general formula I, IC50 inhibitory concentrations which cause a 50-% displacement of capsaicin were calculated. Ki values for the test substances were obtained by conversion by means of the Cheng-Prusoff equation (Cheng, Prusoff; Biochem. Pharmacol. 22, 3099-3108, 1973).
Chinese hamster ovary cells (CHO K1 cells, European Collection of Cell Cultures (ECACC) United Kingdom) are stably transfected with the VR1 gene. For functional testing, these cells are plated out on poly-D-lysine-coated black 96-well plates having a clear base (BD Biosciences, Heidelberg, Germany) at a density of 25,000 cells/well. The cells are incubated overnight at 37° C. and 5% CO2 in a culture medium (Ham's F12 nutrient mixture, 10% by volume of FCS (foetal calf serum), 18 μg/ml of L-proline). The next day the cells are incubated with Fluo-4 (Fluo-4 2 μM, 0.01% by volume of Pluronic F127, Molecular Probes in HBSS (Hank's buffered saline solution), Gibco Invitrogen GmbH, Karlsruhe, Germany) for 30 min at 37° C. Subsequently, the plates are washed three times with HBSS buffer and after further incubation for 15 min at RT used for Ca^2+ measurement in a FLIPR assay. The Ca^2+-dependent fluorescence is measured before and after the addition of the substances to be tested (λex wavelength=488 nm, λem=540 nm). Quantification is carried out by measuring the highest fluorescence intensity (FC, fluorescence counts) over time.
`CS(=O)(=O)CCc1ccc(NC(=O)NCc2oc(C(F)(F)F)nc2-c2cccc(Cl)c2)cn1` [EX-30, 1-((4-(3-chlorophenyl)-2-(trifluoromethyl)oxazol-5-yl)methyl)-3-(6-(2-(methylsulfonyl)ethyl)pyridin-3-yl)urea] was tested, and the inhibition at 5 µM was 41%. `O=C(NCc1oc(C(F)(F)F)nc1-c1cccc(Cl)c1)Nc1ccc(CCO)nc1` [EX-37, 1-((4-(3-chlorophenyl)-2-(trifluoromethyl)oxazol-5-yl)methyl)-3-(6-(2-hydroxyethyl)pyridin-3-yl)urea] showed an inhibition at 5 µM of 46%. In the case of `CC(C)(C)c1nc(-c2cccc(Cl)c2)c(CNC(=O)Nc2ccc(COCCO)nc2)o1` [EX-46, 1-((2-(tert-butyl)-4-(3-chlorophenyl)oxazol-5-yl)methyl)-3-(6-((2-hydroxyethoxy)methyl)pyridin-3-yl)urea dihydrochloride], the inhibition at 5 µM is reported as 55%. `O=C(NCc1oc(C(F)(F)F)nc1-c1cccc(Cl)c1)Nc1ccc(COCCO)nc1` [EX-48, 1-((4-(3-chlorophenyl)-2-(trifluoromethyl)oxazol-5-yl)methyl)-3-(6-((2-hydroxyethoxy)methyl)pyridin-3-yl)urea dihydrochloride] gave an inhibition at 5 µM of 31%.

Same assay, conditions: compound 5 μM, % activation compared with control capsaicin 10 μM
In the case of `CC(C)(C)c1nc(-c2cccc(Cl)c2)c(CNC(=O)Nc2ccc(CO)nc2)o1` [EX-25, 1-((2-(tert-butyl)-4-(3-chlorophenyl)oxazol-5-yl)methyl)-3-(6-(hydroxymethyl)pyridin-3-yl)urea], the “compound-alone effect on Ca2+ influx (agonist / partial agonist)” value is reported as “pAG (A Ca^2+ influx of 10%-60% reveals a partial agonist (pAG))”. With `CC(C)(C)c1nc(-c2cccc(Cl)c2)c(CNC(=O)Nc2ccc(CO)nc2)s1` [EX-26, 1-((2-(tert-butyl)-4-(3-chlorophenyl)thiazol-5-yl)methyl)-3-(6-(hydroxymethyl)pyridin-3-yl)urea] the “compound-alone effect on Ca2+ influx (agonist / partial agonist)” value was “pAG (A Ca^2+ influx of 10%-60% reveals a partial agonist (pAG))”. With `O=C(NCc1sc(C(F)(F)F)nc1-c1cccc(Cl)c1)Nc1ccc(CCO)nc1` [EX-34, 1-((4-(3-chlorophenyl)-2-(trifluoromethyl)thiazol-5-yl)methyl)-3-(6-(2-hydroxyethyl)pyridin-3-yl)urea] the “compound-alone effect on Ca2+ influx (agonist / partial agonist)” value was “pAG (A Ca^2+ influx of 10%-60% reveals a partial agonist (pAG))”. `CC(C)(C)c1nc(-c2cccc(Cl)c2)c(CNC(=O)Nc2ccc(CCO)nc2)s1` [EX-36, 1-((2-(tert-butyl)-4-(3-chlorophenyl)thiazol-5-yl)methyl)-3-(6-(2-hydroxyethyl)pyridin-3-yl)urea] was tested, and the “compound-alone effect on Ca2+ influx (agonist / partial agonist)” value was “AG (a Ca^2+ influx of >60% relates to a pure agonist (AG))”. In the case of `CC(C)(C)c1nc(-c2cccc(Cl)c2)c(CNC(=O)Nc2ccc3c(c2)OCO3)s1` [EX-50, 1-(benzo[d][1,3]dioxol-5-yl)-3-((2-(tert-butyl)-4-(3-chlorophenyl)thiazol-5-yl)methyl)urea], the “compound-alone effect on Ca2+ influx (agonist / partial agonist)” value is reported as “pAG (A Ca^2+ influx of 10%-60% reveals a partial agonist (pAG))”. In the case of `CC(C)(C)c1nc(-c2cccc(Cl)c2)c(CNC(=O)Nc2cccc3c2CCC3)s1` [EX-51, 1-((2-(tert-butyl)-4-(3-chlorophenyl)thiazol-5-yl)methyl)-3-(2,3-dihydro-1H-inden-4-yl)urea], the “compound-alone effect on Ca2+ influx (agonist / partial agonist)” value is reported as “pAG (A Ca^2+ influx of 10%-60% reveals a partial agonist (pAG))”. With `CC(C)(C)c1nc(-c2cccc(Cl)c2)c(CNC(=O)Nc2ccc3cnccc3c2)s1` [EX-52, 1-((2-(tert-butyl)-4-(3-chlorophenyl)thiazol-5-yl)methyl)-3-(isoquinolin-6-yl)urea] the “compound-alone effect on Ca2+ influx (agonist / partial agonist)” value was “AG (a Ca^2+ influx of >60% relates to a pure agonist (AG))”.

Same assay, conditions: displacement of capsaicin 100 nM; Ki from IC50 by Cheng-Prusoff equation; read-out: (f) Ki (human) [nM] Cap
In the case of `CC(C)(C)c1nc(-c2cccc(Cl)c2)c(CNC(=O)Nc2ccc(CO)nc2)o1` [EX-25, 1-((2-(tert-butyl)-4-(3-chlorophenyl)oxazol-5-yl)methyl)-3-(6-(hydroxymethyl)pyridin-3-yl)urea], the Ki is reported as 73.1 nM. With `CC(C)(C)c1nc(-c2cccc(Cl)c2)c(CNC(=O)Nc2ccc(CO)nc2)s1` [EX-26, 1-((2-(tert-butyl)-4-(3-chlorophenyl)thiazol-5-yl)methyl)-3-(6-(hydroxymethyl)pyridin-3-yl)urea] the Ki was 10.2 nM. For `O=C(NCc1oc(C(F)(F)F)nc1-c1cccc(Cl)c1)Nc1ccc(CO)nc1` [EX-27, 1-((4-(3-chlorophenyl)-2-(trifluoromethyl)oxazol-5-yl)methyl)-3-(6-(hydroxymethyl)pyridin-3-yl)urea], the Ki was 62.5 nM. `O=C(NCc1sc(C(F)(F)F)nc1-c1cccc(Cl)c1)Nc1ccc(CO)nc1` [EX-28, 1-((4-(3-chlorophenyl)-2-(trifluoromethyl)thiazol-5-yl)methyl)-3-(6-(hydroxymethyl)pyridin-3-yl)urea] gave a Ki of 19.4 nM. `CS(=O)(=O)CCc1ccc(NC(=O)NCc2sc(C(F)(F)F)nc2-c2cccc(Cl)c2)cn1` [EX-31, 1-((4-(3-chlorophenyl)-2-(trifluoromethyl)thiazol-5-yl)methyl)-3-(6-(2-(methylsulfonyl)ethyl)pyridin-3-yl)urea] showed a Ki of 48.8 nM. For `O=C(NCc1oc(C(F)(F)F)nc1-c1cccc(Cl)c1)Nc1ccc(N2CC(O)C2)nc1` [EX-32, 1-((4-(3-chlorophenyl)-2-(trifluoromethyl)oxazol-5-yl)methyl)-3-(6-(3-hydroxyazetidin-1-yl)pyridin-3-yl)urea], the Ki was 60.8 nM. Work on `O=C(NCc1sc(C(F)(F)F)nc1-c1cccc(Cl)c1)Nc1ccc(N2CC(O)C2)nc1` [EX-33, 1-((4-(3-chlorophenyl)-2-(trifluoromethyl)thiazol-5-yl)methyl)-3-(6-(3-hydroxyazetidin-1-yl)pyridin-3-yl)urea] yielded a Ki of 24.6 nM. Work on `O=C(NCc1sc(C(F)(F)F)nc1-c1cccc(Cl)c1)Nc1ccc(CCO)nc1` [EX-34, 1-((4-(3-chlorophenyl)-2-(trifluoromethyl)thiazol-5-yl)methyl)-3-(6-(2-hydroxyethyl)pyridin-3-yl)urea] yielded a Ki of 30.2 nM. `CC(C)(C)c1nc(-c2cccc(Cl)c2)c(CNC(=O)Nc2ccc(CCO)nc2)o1` [EX-35, 1-((2-(tert-butyl)-4-(3-chlorophenyl)oxazol-5-yl)methyl)-3-(6-(2-hydroxyethyl)pyridin-3-yl)urea] showed a Ki of 78.4 nM. Work on `CC(C)(C)c1nc(-c2cccc(Cl)c2)c(CNC(=O)Nc2ccc(CNS(C)(=O)=O)cc2)o1` [EX-38, N-(4-(3-((2-(tert-butyl)-4-(3-chlorophenyl)oxazol-5-yl)methyl)ureido)benzyl)methanesulfonamide] yielded a Ki of 52.6 nM. `CC(C)(C)c1nc(-c2cccc(F)c2)c(CNC(=O)Nc2ccc(CNS(C)(=O)=O)cc2)s1` [EX-39, N-(4-(3-((2-(tert-butyl)-4-(3-fluorophenyl)thiazol-5-yl)methyl)ureido)benzyl)methanesulfonamide] was tested, and the Ki was 17.6 nM. `CC(C)(C)c1nc(-c2cccc(Cl)c2)c(CNC(=O)Nc2ccc(OCCO)nc2)o1` [EX-40, 1-((2-(tert-butyl)-4-(3-chlorophenyl)oxazol-5-yl)methyl)-3-(6-(2-hydroxyethoxy)pyridin-3-yl)urea] showed a Ki of 43.6 nM. Molecule `CC(C)(C)c1nc(-c2cccc(Cl)c2)c(CNC(=O)Nc2ccc(OCCO)nc2)s1` [EX-41, 1-((2-(tert-butyl)-4-(3-chlorophenyl)thiazol-5-yl)methyl)-3-(6-(2-hydroxyethoxy)pyridin-3-yl)urea] has a Ki of 27.5 nM. `O=C(NCc1oc(C(F)(F)F)nc1-c1cccc(Cl)c1)Nc1ccc(OCCO)nc1` [EX-42, 1-((4-(3-chlorophenyl)-2-(trifluoromethyl)oxazol-5-yl)methyl)-3-(6-(2-hydroxyethoxy)pyridin-3-yl)urea] gave a Ki of 103 nM. Work on `O=C(NCc1sc(C(F)(F)F)nc1-c1cccc(Cl)c1)Nc1ccc(OCCO)nc1` [EX-43, 1-((4-(3-chlorophenyl)-2-(trifluoromethyl)thiazol-5-yl)methyl)-3-(6-(2-hydroxyethoxy)pyridin-3-yl)urea] yielded a Ki of 29.8 nM. With `CC(C)(C)c1nc(CNC(=O)Nc2ccc(CNS(N)(=O)=O)cc2)c(-c2cccc(Cl)c2)o1` [EX-44, N-((5-(3-chlorophenyl)-2-(tertbutyl)oxazol-4-yl)methyl)-N′-(4-((sulfamoylamino)methyl)phenyl)urea] the Ki was 29.9 nM. With `CC(C)(C)c1nc(-c2cccc(Cl)c2)c(CNC(=O)Nc2ccc(COCCO)nc2)s1` [EX-47, 1-((2-(tert-butyl)-4-(3-chlorophenyl)thiazol-5-yl)methyl)-3-(6-((2-hydroxyethoxy)-methyl)pyridin-3-yl)urea dihydrochloride] the Ki was 33.3 nM. With `O=C(NCc1sc(C(F)(F)F)nc1-c1cccc(Cl)c1)Nc1ccc(COCCO)nc1` [EX-49, 1-((4-(3-chlorophenyl)-2-(trifluoromethyl)thiazol-5-yl)methyl)-3-(6-((2-hydroxyethoxy)methyl)pyridin-3-yl)urea dihydrochloride] the Ki was 35 nM. Work on `CC(C)(C)c1nc(-c2cccc(Cl)c2)c(CNC(=O)Nc2ccc3c(c2)OCO3)s1` [EX-50, 1-(benzo[d][1,3]dioxol-5-yl)-3-((2-(tert-butyl)-4-(3-chlorophenyl)thiazol-5-yl)methyl)urea] yielded a Ki of 5.6 nM. Work on `CC(C)(C)c1nc(-c2cccc(Cl)c2)c(CNC(=O)Nc2cccc3c2CCC3)s1` [EX-51, 1-((2-(tert-butyl)-4-(3-chlorophenyl)thiazol-5-yl)methyl)-3-(2,3-dihydro-1H-inden-4-yl)urea] yielded a Ki of 2.9 nM.
